Results: patent EP1222194B1, “7-ACYLAMINO-3-HETEROARYLTHIO-3-CEPHEM CARBOXYLIC ACID ANTIBIOTICS AND PRODRUGS THEREOF” (priority 1999, dated 2001)

Legend:
[1] = Serum binding determination by ultrafiltration and HPLC; format: in vitro ADME; conditions: human, serum, % of compound bound to serum as determined by HPLC
Protocol: The more accurate measurement of binding of selected cephalosporin compounds was performed using HPLC as described below. […] Serum is placed in a shaking water bath preheated to 37 ± 2 °C for 5 to 10 minutes to heat serum to 37 °C. Serum pH is measured and recorded, while serum is 37 °C using pH paper. Measurements are taken twice, 3 minutes apart. […] After blowing for several minutes, serum is heated to 37 °C and measurements are taken twice, 3 minutes apart using pH paper to determine the pH. Store at 4 °C. The serum is stable for 7 days. Always check the pH before each use. • 2. Before any centrifugation, the centrifuge temperature must be adjusted to 25 ± 2 °C. Preheat the centrifuge by spinning for 45 minutes at the same speed to be used in the assay (1900 g) with two tubes of water in the rotor and the temperature set to 25 °C. When the centrifuge stops immediately check the temperature of the tubes of water with a calibrated thermometer. The temperature of the tubes of water must be 25 ± 2 °C. […] Continue spinning and measuring the temperature and adjusting the setting until the temperature is 25 ± 2 °C. • 3. Prepare blank ultrafiltrate by pipetting blank pH 7.4 serum into an Amicon Centrifree Micropartition devices, centrifuge: fixed angle rotor, 1900 g, 25 °C for 20 minutes. Heat ultrafiltrate in a shaking water bath preheated to 37 °C. Measure ultrafiltrate pH and adjust to the pH of the serum (7.4 ± 0.2). • 4. Pipette 190 ul of blank ultrafiltrate into a set of labeled 1.7 mL polypropylene microfuge tubes for 3 of each level. Pipette 10 µL of the appropriate standard stock 50, 200, 1000 µg/mL to make standards 2.5, 10, and 50 µg/mL respectively. Vortex each tube well. One set of the standard samples are mixed 1:1 with 0.2 M acetic acid and injected onto the HPLC (MSTD). These samples are the membrane standards and will be used to compare to the other standards. Pipette 190 ul of ultrafiltrate and spike with 10 ul of whatever solution (e.g. water) the standards are prepared in to make the zero standard. • 5. Pipette 475 µL of blank heated pH 7.4 serum into a set of labeled 1.7 mL polypropylene microfuge tubes for 2 of each (Serum A and Serum B). Pipette 25 µL of the 1000 µg/mL standard stock into each tube, vortex each tube well to make serum standard 50 µg/mL. Remove 100 µL of serum and deproteinate with 200 µL 4% TCA while vortexing to make serum time 0 (serum 50, T0). Place serum tubes in a shaking water bath at 37 °C for 10 minutes. Pipet 100 µL of serum out and deproteinate with 200 µL 4% TCA, to make serum time 10 min (serum 50, T10). Pipet 200 ul serum standard 50 µg/mL into an ultrafiltration device, which is not treated with TCA, to determine free drug in samples (Rat Serum 50). • 6. Transfer serum and standard samples to labeled Amicon Centrifree Micropartition filters, and centrifuge: 1900 g, 25 °C for 10 minutes. The extracted serum samples (T0 and T 10) are spun down and supernatant is loaded into HPLC vials. • 7. 100 µL of ultrafiltrate sample and 100 µL of 0.2 M acetic acid were mixed together to stabilize the compound in ultrafiltrate. • 8. Transfer entire stabilized ultrafiltrate solution to a labeled autoinjector HPLC vial cap with Teflon septa, and inject on HPLC.
Peak height or area is used in a weighted linear regression.
High levels of binding to human serum proteins limits the concentration of compound available for antibacterial activity in the body.

[2] = In vitro stability of compounds in rat serum; format: in vitro ADME; conditions: for degraded at 1 h: % loss after 60 min exposure to rat serum as determined by HPLC, 37 °C; for stability in rat serum (statement in words): compared with other 7-acylamino-3-heteroarylthio-3-cephem carboxylic acids
Protocol: In general, compounds from the class of 7-acylamino-3-heteroarylthio-3-cephem carboxylic acids have higher chemical reactivity and lower stability towards chemical or enzymatic decomposition than most typical cephalosporins. […] Results shown in Table 2 represent percentage loss of the initial amount of cephalosporin compound upon 60 min incubation in rat serum.
Procedure for measuring degree of degradation of cephalosporin compounds in rat serum was as follows:
Fresh control rat serum (heparinized and stored frozen) is preincubated at 37 °C for 15 min in a shaking water bath. pH is measured using test strips. 25 µL of a 2 mg/mL solution cephalosporin compound (in water) of is then added to each matrix to make 1000 µL. Solutions were incubated at 37 °C. 100ul of solution was taken out at time = 0, 15, 30, and 60 min post dose and added 200 µL 4% trichloroacetic acid, vortexed, and centrifuged for 10 min at 14,000 rpm in an Eppendorfmicrocentrifuge. 25 µL of each supernatant was injected onto HPLC. Experiment was repeated using 25 µL of a 0.2 mg/mL cephalosporin compound. Degradation is measured as the percentage of HPLC peak area at time t relative to peak area at time 0.
HPLC conditions: Beckman Ultrasphere C18 column. 5u. 4.6mm x 25cm. 1 mL/min of 95% 0.1 M ammonium acetate, pH 6, 5% ACN going to 75% buffer/organic over 20min. UV monitored at 254 and 280 nm.

SMILES	fraction unbound [1]	degraded at 1 h [2] [%]	stability in rat serum (statement in words) [2]
NCCSCc1ccncc1SC1=C(C(=O)O)N2C(=O)[C@@H](NC(=O)/C(=N\O)c3nc(N)sc3Cl)[C@H]2SC1 [Cmpd 3, (7R)-7-[(Z)-2-(2-amino-5-chlorothiazol-4-yl)-2-(hydroxyimino)acetamido]-3-[4-(2-aminoethylthiomethyl)pyrid-3-ylthio]-3-cephem-4-carboxylic acid]	0.1	3	improved stability
N=C(N)NCCSCc1ncccc1SC1=C(C(=O)O)N2C(=O)[C@@H](NC(=O)/C(=N\O)c3nsc(N)n3)[C@H]2SC1 [Cmpd 2-R, (7R)-7-[(Z)-2-(5-amino-1,2,4-thiadiazol-3-yl)-2-(hydroxyimino)acetamido]-3-[2-(2-guanidinoethylthiomethyl)pyrid-3-ylthio]-3-cephem-4-carboxylic acid]	≥ 0.2	10	improved stability
NCCSCc1ncccc1SC1=C(C(=O)O)N2C(=O)[C@@H](NC(=O)/C(=N\O)c3nsc(N)n3)[C@H]2SC1 [Cmpd 2, (7R)-7-[(Z)-2-(5-amino-1,2,4-thiadiazol-3-yl)-2-(hydroxyimino)acetamido]-3-[2-(2-aminoethylthiomethyl)pyrid-3-ylthio]-3-cephem-4-carboxylic acid]	≥ 0.2	2	improved stability
NCCSCc1ncccc1SC1=C(C(=O)O)N2C(=O)[C@@H](NC(=O)/C(=N\O)c3nc(N)sc3Cl)[C@H]2SC1 [Cmpd 1, (7R)-7-[(Z)-2-(2-amino-5-chlorothiazol-4-yl)-2-(hydroxyimino)acetamido]-3-[2-(2-aminoethylthiomethyl)pyrid-3-ylthio]-3-cephem-4-carboxylic acid]	0.1	9	improved stability
N=C(N)NCCSCc1ncccc1SC1=C(C(=O)O)N2C(=O)[C@@H](NC(=O)/C(=N\O)c3nc(N)sc3Cl)[C@H]2SC1 [Cmpd 2-S, (7R)-7-[(Z)-2-(2-amino-5-chlorothiazol-4-yl)-2-(hydroxyimino)acetamido]-3-[2-(2-guanidinoethylthiomethyl)pyrid-3-ylthio]-3-cephem-4-carboxylic acid]	0.17	38	improved stability
